Data: the NIST ThermoML archive (doi:10.1016/j.jct.2016.09.005)

Details: Fluid (supercritical or subcritical phases), Brillouin Light Scattering

CC(C)OC(C)C [diisopropyl ether]
Details	speed of sound [m/s]
541.51 K, 6500 kPa	190.79
544.16 K, 3500 kPa	139.1
545.71 K, 4500 kPa	129.23
546.93 K, 5500 kPa	147.8
547.24 K, 6500 kPa	183.8
551 K, 3500 kPa	147.92
554.09 K, 4500 kPa	137.04
554.6 K, 5500 kPa	142.16
555.23 K, 6500 kPa	172.31
556.02 K, 3500 kPa	156.04
562.71 K, 3500 kPa	162.02
564.46 K, 4500 kPa	151.45
564.68 K, 5500 kPa	144.2
564.77 K, 6500 kPa	162.69
568.12 K, 3500 kPa	172.59
570.23 K, 4500 kPa	159.8
570.32 K, 6500 kPa	155.46
571.21 K, 5500 kPa	149.54
572.24 K, 3500 kPa	178.24
574.75 K, 6500 kPa	156.08
575.87 K, 4500 kPa	166.92
576.95 K, 5500 kPa	157.61
578.05 K, 3500 kPa	184.2
580.81 K, 6500 kPa	160.95
582.97 K, 4500 kPa	176.94
583.61 K, 3500 kPa	191.39
583.79 K, 5500 kPa	168.45
586.87 K, 6500 kPa	165.44
587.28 K, 5500 kPa	174.08
588.06 K, 4500 kPa	184.23
588.82 K, 3500 kPa	197.63
591.77 K, 3500 kPa	201.8
592.03 K, 6500 kPa	173.69
592.07 K, 4500 kPa	191.01
592.51 K, 5500 kPa	179.58
595.88 K, 6500 kPa	181.47
597.6 K, 4500 kPa	197.93
597.6 K, 5500 kPa	185.96
597.62 K, 3500 kPa	207.01
602.12 K, 3500 kPa	213.74
602.56 K, 4500 kPa	203.87
603.22 K, 6500 kPa	189.62
603.37 K, 5500 kPa	196.7
607.19 K, 4500 kPa	209.92
607.26 K, 5500 kPa	201.24
608.3 K, 3500 kPa	220.34
608.98 K, 6500 kPa	198.69
612.23 K, 3500 kPa	223.95
612.23 K, 4500 kPa	214.66
612.33 K, 5500 kPa	208.84
612.73 K, 6500 kPa	201.04
617.47 K, 4500 kPa	220.52
618 K, 3500 kPa	231.2
618.05 K, 5500 kPa	215.78
618.31 K, 6500 kPa	208.27
622.27 K, 3500 kPa	235.81
623.05 K, 5500 kPa	219.38
623.51 K, 4500 kPa	226.31
623.75 K, 6500 kPa	213.55
626.85 K, 5500 kPa	224.98
627.63 K, 6500 kPa	217.44
627.65 K, 3500 kPa	240.7
628.55 K, 4500 kPa	231.82
632.23 K, 4500 kPa	235.83
632.72 K, 5500 kPa	227.82
632.86 K, 3500 kPa	243.95
633.54 K, 6500 kPa	221.63
637.16 K, 6500 kPa	225.18
638.22 K, 3500 kPa	249.88
638.59 K, 4500 kPa	240.88
638.75 K, 5500 kPa	232.85
642.34 K, 6500 kPa	228.66
643.55 K, 4500 kPa	245.98
643.72 K, 3500 kPa	254.88
644.35 K, 5500 kPa	237.43
648.15 K, 5500 kPa	239.71
648.16 K, 6500 kPa	231.72
648.36 K, 3500 kPa	257.88
648.6 K, 4500 kPa	250.01
652.25 K, 4500 kPa	253.58
652.83 K, 5500 kPa	244.43
653.38 K, 3500 kPa	263.46
653.97 K, 6500 kPa	236.88
657.92 K, 5500 kPa	246.91
658.37 K, 4500 kPa	256.34
658.49 K, 6500 kPa	239.95
658.61 K, 3500 kPa	265.77
662.18 K, 5500 kPa	249.76
662.28 K, 4500 kPa	259.34
663.04 K, 6500 kPa	242.15
664.11 K, 3500 kPa	269.84
667.5 K, 5500 kPa	252.59
667.83 K, 4500 kPa	264.18
667.84 K, 6500 kPa	245.05
668.59 K, 3500 kPa	271.89
670.57 K, 5500 kPa	254.53
671.41 K, 6500 kPa	247.45
672.38 K, 4500 kPa	265.43
672.56 K, 3500 kPa	274.52
